Source: patent publication US20030111088A1, “Device and method for treating combination dependencies” (Addiction Therapies, Inc., priority 2001, published 2003)
Where two headings read alike, the source gives them in different places.

What was measured:
[1] = several clinical studies; cited from earlier work
[2] = in vivo; cited from earlier work
[3] = Description: (§1) On day one, following overnight abstinence from smoking, healthy adult smokers who wish to give up smoking receive a single dose of nicotine or placebo. Smokers are assigned to each dosage group in a double blind, randomized manner, as is well known in the art. The following data are collected before dosing, every thirty minutes for the first two hours after dosing, and every hour for the following six hours: plasma levels of nicotine and cotinine, vital signs, adverse events, and patient's assessment of cigarette cravings. Baseline and endpoint clinical chemistry, hematology, urinalysis, and ECG are also monitored.
On day eight, again following overnight abstinence from smoking, the same subjects receive the same dose of nicotine or placebo. The dose is repeated periodically throughout the day. The following data are collected as described above before the first dosing and one hour after each dose is administered: plasma levels of nicotine and cotinine, vital signs, adverse events, and patient's assessment of cigarette cravings. Baseline and endpoint clinical chemistry, hematology, urinalysis, and ECG are also monitored. The data are used to evaluate the safety and pharmacokinetics of nicotine delivery by the smoking cessation device.
(§2) There were 6 subjects per treatment group. […] Apple juice was used as the beverage for delivering nicotine from the straw-like device.

[4] = for plasma levels of nicotine by dose group: single and repeated dose parts
Method: The chamber 10 is a plastic drinking straw. The retainer 18 is a filter at the first end 12 of the straw. The user places the first end 12 of the device in a glass of apple juice and applies oral suction to the second end 14 of the device, such that the juice and nicotine 16 are delivered into the user's mouth.
The nicotine 16 in the device is in the form of coated sugar spheres of nicotine bitartrate having a diameter of approximately 500 micrometers. The nicotine spheres are prepared by spraying nicotine bitartrate dihydrate with a binder onto sugar spheres and applying a film coating. Using a Wurster processing unit, particles are suspended in air using a controlled airflow system and a coating suspension is added at a controlled rate via a pneumatically atomized nozzle. As atomized droplets of the coating solution contact the particles, they spread and coalesce on the particle surface. Excess moisture from the applied liquid evaporates in the apparatus, leaving a coated dry substance. Mixing of the coating suspension occurs throughout the manufacturing process to ensure uniformity of the suspension.
as §1, §2

O=C1CC[C@@]2(O)[C@H]3Cc4ccc(O)c5c4[C@@]2(CCN3CC2CC2)[C@H]1O5 [Naltrexone, naltrexone]
effects on smoking cessation [1]: only small effects

Oc1ccc2c3c1O[C@H]1[C@H](O)CC[C@@]4(O)[C@@H](C2)N(CC2CC2)CC[C@]314 [6β-naltrexol]
plasma half-life [2]: 12 h

CN1CCCC1c1cccnc1 (centres unmarked) [nicotine]
tolerability ([3]; 4 mg and 8 mg doses in straw-like delivery device): well tolerated
nausea and vomiting ([3]; 12 mg dose versus 4 mg and 8 mg): seen only with the 12 mg dose
adverse events observed ([3]; all nicotine doses): lightheadedness, nausea, and vomiting
clinical chemistry, hematology, urinalysis or ECG values ([3]; human, in vivo): no clinically significant changes
vital sign measurements ([3]; human, in vivo): Occasional increases
craving for cigarettes ([3]; over the repeat dosing session, all subjects receiving nicotine): decreased
plasma levels of nicotine by dose group ([4]; 4 mg dose group): lowest plasma levels
plasma levels of nicotine by dose group ([4]; 8 mg and 12 mg dose groups): higher plasma levels
nicotine levels in most subjects ([4]; 15 minutes after dosing): already increased
plasma nicotine on repeated dosing ([4]; repeated dosing every 1.5 hours, 10.5 hour sampling period): continuous increases
plasma levels of nicotine versus marketed nicotine replacement products ([4]; single dose 4 mg, 8 mg or 12 mg, straw-like device, FIG. 3): comparable to or greater than
kinetics compared with nicotine gum ([4]; straw-like device, FIG. 4): very similar
